Columns and labels:
[1] = tested on: Human prostate cancer cells (PC3); experiment: Cytotoxicity by SRB assay, PC3 cells; type: cell-based; details: 0.01 μM to 100 μM for 72 h
Method: (§1) Human prostate cancer cells (PC3) and human osteosarcoma cells (MG-63) were obtained from Nawah Scientific Inc. (Mokatam, Cairo, Egypt) and cultured in DMEM (Dulbecco's modified eagle's medium), Gibco, USA, supplemented with fetal bovine serum (FBS) at a concentration of 10% and 100 U/mL of penicillin and streptomycin (PS). The cells were incubated at 37° C. in a humidified environment that contained 5% CO2. Cells were seeded in 96-well plates as aliquots of 100 μL cell suspension and incubated in a complete media for 24 h. afterward, cells were treated with 3-(4-chlorophenyl)-5-{[5-methyl-2-(propan-2-yl)phenoxy]methyl}-1,2,4-oxadiazole at diverse concentrations ranging from 0.01 μM to 100 μM for 72 h. Then, cells were fixed at 4° C. for one hour with 150 μL of 10% trichloroacetic acid (TCA). After washing the cells five times with distilled water, 70 μL of sulforhodamine (SRB) solution (0.4% w/v) was added and incubated for 10 min at room temperature in a dark place. […] Then, 150 μL of Tris pH 10.5 (10 mM) was added, and the absorbance was measured at 540 nm using a BMG LABTECH®-FLUOstar Omega microplate reader (Ortenberg, Germany). Half maximal inhibitory concentrations (IC50) values were calculated for each experiment using GraphPad Prism 6 software. […] The inhibition was calculated using the following equation: Inhibition %=100−Average Viability

[2] = tested on: human osteosarcoma cells (MG-63); experiment: Cytotoxicity by SRB assay, MG-63 cells; type: cell-based; details: 0.01 μM to 100 μM for 72 h
Method: as §1

melting point: 166 to 167 °C
Structure (SMILES): Cc1ccc(C(C)C)c(OCc2nc(-c3ccc(Cl)cc3)no2)c1 [3-(4-chlorophenyl)-5-{[5-methyl-2-(propan-2-yl)phenoxy]methyl}-1,2,4-oxadiazole]
antiproliferative activity [1]: excellent antiproliferative activities | antiproliferative activity [2]: excellent antiproliferative activities

Source: patent publication US11970471B1, “3-(4-chlorophenyl)-5-{[5-methyl-2-(propan-2-yl)phenoxy]methyl }- 1,2,4-oxadiazole as an antitumor and antimicrobial compound” (KING FAISAL UNIVERSITY, priority 2023, dated 2024)
